According to US5686495A, “Substituted hydrazinedicarboximidamides and methods of use thereof” (Cambridge NeuroScience, Inc., priority 1995, dated 1997):
Entries after “also recorded” stand apart in the source; their conditions may differ. Where a name gives a salt, the structure may show the parent alone. Read-outs that look alike come from different tables or passages of the source.

What was measured:
[1] = tested on: 3H-glutamate release from rat brain synaptosomes; experiment: Inhibition of K+-evoked 3H-glutamate release from synaptosomes (rapid superfusion); format: cell-based; details: for inhibition at 10 µM: read-out: Inhibition of Glutamate Release (Persistent Component), % Inhibition @ 10 uM; for inhibition at 30 µM: read-out: inhibition of glutamate release; for activity at 30 µM / activity at 100 µM: read-out: relative level of glutamate release
Description: To study the release of presynaptic ^3 H-glutamate, synaptosomes from young rats were used. CD Male rats of 4 to 6 weeks (50-75 g) were used for the preparation of synaptosomes. Rats were killed by decapitation with guillotine and the skull bone was opened in the center with the pointed blade of dissection scissors. The bone is then peeled away with a bone cutter and the brain is pried with a micro spatula. The cerebellum is removed and the rest of the brain is placed in 35 ml of 0.32M Sucrose solution and homogenized in a Thomas glass teflon homogenizer C at the maximum power setting (about 450 rpm) with 16 strokes. The pestle is rinsed with 5 ml of sucrose solution and added to the homogenate. The homogenate is centrifuged for 10 min at 3500 rpm (1500 g) in a SS-34 rotor in Sorvall RC-5B. The resulting pellet (P1) is discarded and the supernatant (S1) is recentrifuged for 20 min at 8700 rpm (8500 g). The supernatant (S2) is discarded and the pellet (P2) is resuspended in 5 ml of 0.32M sucrose and hand homogenized with 4 strokes (Thomas C) and the volume was made up to 8 ml. This homogenate was layered on 20 ml of 0.8M sucrose solution in two centrifuge tubes and spun for 25 minutes at 8700 rpm (8500 g). At the end of this spin, most of the myelin stays at the interphase of 0.32M and 0.8M sucrose and mitochondria pellet as a brown pellet. The synaptosomes are dispersed in the 0.8M sucrose. Using a 10 ml pipette, the 0.8M sucrose layer is collected (without disturbing the top myelin layer or the pellet) and diluted slowly with an equal volume of chilled basal buffer, while stirring gently with a Pasteur pipette. This diluted solution is centrifuged for 10 min at 10,000 rpm (12,000 g) and the pellet is resuspended in 1.5 ml of basal buffer and hand-homogenized in a Wheaton glass-glass 7 ml homogenizer with 8 strokes.
The synaptosomal homogenate is diluted 1 ml to 10 ml with basal buffer. This dilution gives a protein concentration of 500 to 600 μg/ml. One hundred μl of this diluted prep with 50-60 μg of protein is used for each superfusion event. […] The diluted synaptosomal solution was kept on ice until the end of the experiment.
^3 H-glutamate (purchased from NEN) is stored in the refrigerator. Pipette 6 μl ([…]; 40 to 55 Ci/mmol) into a disposable test tube. Add 100 μl of diluted prep and mix gently on vortex and incubate at 30° C. for 10 min. ^3 H-glutamate is taken up by sodium-coupledglutamate transporter present in synaptosomal membranes. After 10 min, dilute the incubation mixture with 690 μl of basal buffer. This solution is then transferred in Tygon tubing that is connected to the synaptosome loading chamber. Using a syringe filler with air, the solution is forced through the Millipore SC--GF/F--Millipore SC filter sandwich. These filters retain the synaptosomes and the solution flows through.
An important component of the superfusion setup is the custom made stainless steel "General Valve" three-valve solenoid operated superfusion chamber with an outlet for the effluent. The three inlets are connected to stainless steel buffer reservoirs that contain (1) wash buffer, (2) control buffer and (3) experimental buffer which are kept under 40 psi of nitrogen gas through teflon tubing connections. The superfusion is controlled through a menu-driven program on an Apple IIe computer. See Turner, J. T. et al., Anal. Biochem. 178:8-16 (1989), and U.S. Pat. No. 4,891,185, the disclosures of which are fully incorporated by reference herein.
The superfusion chamber has a teflon bushing and a stainless steel washer fixed with the flat surface facing the filters. A GF/B filter disc is placed first in the chamber to eliminate the switching related artifacts. The synaptosome loaded sandwich is then placed facing the synaptosomes into the flow followed by RA filter, stainless steel screen and a washer with the flat side facing the screen.

[2] = tested on: potassium-stimulated 45Ca uptake of synaptosomes; experiment: Potassium-stimulated 45Ca uptake into synaptosomes; format: cell-based, rat
Description: Several compounds were also tested to determine whether the Ca^2+ dependent and independent components of glutamate release are related to the blockage of ^45 Ca uptake. Calcium uptake is one step in the cascade of events which occur in neuronal cell death from ischemia. See Bassaclough and Leach, Current Patents Ltd., 2-27. The Ca-flux protocol is as follows. Rat brain synaptosomes were prepared according to Hajos, Brain Res. 93:485 (1975). Synaptosomes were suspended in low potassium "LK" buffer (containing 3 mM KCl) at 2 mg/ml. […] After 5 seconds, the ^45 Ca flux was stopped with 0.9 ml quench solution (LK+10 mM EGTA). The solution was filtered under vacuum and the filters washed with 15 ml of quench buffer. The effect of drug is expressed as % inhibition (or block) of control potassium-stimulated ^45 Ca influx. This method is an adaptation of the method disclosed by Nachsen and Blaustein, J. Physiol. 361:251-268 (1985).

[3] = tested on: sodium channels in N1E-115 neuroblastoma cells; experiment: Whole cell sodium currents in voltage clamped N1E-115 neuroblastoma cells; format: cell-based
Excerpt: Whole cell sodium currents were elicited in voltage clamped N1E-115 neuroblastoma cells, using the stimulus protocol shown on the top of FIG. 7.

[4] = tested on: ω-conotoxin-sensitive N-type calcium channels; experiment: Electrophysiology on N-type calcium channels of single dorsal root ganglion cells; format: cell-based, bullfrog
Description: Single bullfrog dorsal root ganglion cells, which express ω-conotoxin-sensitive N-type calcium channels, were treated with 5 uM of N,N'-di(acenaphthyl) guanidine. The solution also contained (in mM) CsCl, 90; creatine phosphate, 5; MgATP, 5; tris GTP, 0.3; EGTA, 10; HEPES, 10; pH 7.2. […] Calcium channel rundown during the recording period may account for the lack of complete reversal of inhibition. This further supports the hypothesis that certain substituted guanidines inhibit neurotransmitter release by […] presynaptic calcium channels.

[5] = tested on: hippocampal slices (Schaffer collateral synaptic potentials); experiment: Hippocampal slice electrophysiology of excitatory synaptic transmission (field EPSP, population spikes); parameters: species or system Sprague-Dawley rats; details: for inhibition at 20 µM: Rattus norvegicus
Description: Transverse sections of hippocampus were obtained from 4-6 week old Sprague-Dawley rats and maintained under standard conditions. […] Extracellular excitatory post synaptic potentials (EPSP's) were recorded by placing a saline-filled glass microelectrode in either the stratum radiatum or stratum lacunosum. Population spikes were recorded by placing an electrode in the stratum pyramidole.

[6] = target: sigma receptor; experiment: Sigma receptor binding against 3H-DTG
[7] = tested on: Ca2+-dependent glutamate release stimulated with the sodium channel activator veratridine; experiment: Glutamate release of synaptosomes depolarized with veratridine; format: cell-based; details: various concentrations
[8] = Rattus norvegicus, read-out: Inhibition of 45Ca Uptake, % Inhibition @ 10 uM (SEM)
[9] = bath application, listed as N,N'-di(5-acenaphthyl)guanidine, Hydrobromide
[10] = Rattus norvegicus; read-out: Inhibition of 45Ca Uptake, IC50

SMILES: Br.N=C(Nc1ccc2c3c(cccc13)CC2)Nc1ccc2c3c(cccc13)CC2 [N,N'-Bis(5-acenaphthyl)guanidine, N,N'-Bis (5-Acenaphthyl)Guanidine Hydrobromide]
- inhibition of Ca2+-dependent [3H]glutamate release (FIG. 3) ([1]; 0, 1, 3, 10 uM, K+ depolarization): potent inhibitor of glutamate release
- selectivity between persistent and transient component of Ca2+-dependent glutamate release ([1]; 3-10 uM): blocks the persistent component of Ca^2+ -dependent glutamate release more than the initial transient component
- inhibition at 10 µM ([1]; Rattus norvegicus): 92%
- IC50 ([1]; Rattus norvegicus, read-out: Inhibition of Glutamate Release (Persistent Component), IC50): 3 µM
- activity at 10 µM ([2]; Rattus norvegicus, read-out: % Uptake vs. Control): 43%
- inhibition at 10 µM [2, 8]: 46%
- IC50 ([2]; Rattus norvegicus, read-out: Inhibition of 45Ca Uptake, IC50): 10.7 ± 3 µM
- block of inward sodium currents, average ([3]; 30 uM, pressure ejection, N=5 cells): 40%
- inhibition of inward sodium current in the cell shown (FIG. 7) ([3]; 30 uM, single cell of FIG. 7): 49%
- reversal of sodium current block ([3]; following washout): partially reversed following washout
- inhibition of N-type calcium channel current ([4]; 5 uM): about 40%
- inhibition of N-type calcium channel current ([4]; 20 uM): inhibited nearly all of the current
- reversal of N-type current inhibition ([4]; in about 6 minutes): Most of the inhibition was reversed
- inhibition at 20 µM ([5]; bath application, read-out: reduction of field EPSP amplitude): 80 to 90%
- inhibition at 20 µM ([5]; bath application, read-out: reduction of population spike amplitude): 80 to 90%
- effect on field EPSP [5, 9]: reversibly blocked; also recorded: almost completely eliminated the field EPSP
- effect on population spikes [5, 9]: completely eliminated population spikes; also recorded: reversibly blocked these population spikes
- reversibility of effect ([5]; following washout, listed as N,N'-di(5-acenaphthyl)guanidine, Hydrobromide): completely reversible following washout; also recorded: fully reversible following washout; also recorded: fully recovered following washout

SMILES: N=C(NC12CC3CC(CC(C3)C1)C2)NC12CC3CC(CC(C3)C1)C2 [N,N'-di-(adamantan-1-yl)guanidine]
- concentration dependence of 3H-glutamate release (FIG. 2) ([1]; 0, 10, 30, 100 uM, 2.1 second K+ depolarizing pulse): decreasing release of glutamate from synaptosomes
- inhibition at 10 µM ([1]; Rattus norvegicus): 49%
- inhibition at 30 µM ([1]; Rattus norvegicus): 55%
- activity at 30 µM ([1]; Rattus norvegicus): 45%
- activity at 100 µM ([1]; Rattus norvegicus): 13%
- inhibition at 10 µM [2, 8]: 25%
- IC50 ([2]; Rattus norvegicus; FIG. 6 curve fits; read-out: IC50, inhibition of potassium-stimulated Ca uptake of synaptosomes (FIG. 6)): 6.6 µM
- IC50 [2, 10]: 25 ± 9 µM
- IC50 [6]: 0.0165 µM

SMILES: N=C(NC1C2CC3CC(C2)CC1C3)NC1C2CC3CC(C2)CC1C3 (centres unmarked) [N,N'-di-(adamantan-2-yl)guanidine, N,N'-(Adamantan-2-yl)guanidine Hydrochloride]
- inhibition at 10 µM ([1]; Rattus norvegicus): 60%
- inhibition at 30 µM ([1]; Rattus norvegicus): 60%
- activity at 30 µM ([1]; Rattus norvegicus): 40%
- activity at 100 µM ([1]; Rattus norvegicus): 20%
- inhibition at 10 µM [2, 8]: 35%
- IC50 [2, 10]: 16.1 ± 10 µM
- IC50 [6]: 0.0927 µM
- inhibition of veratridine-stimulated glutamate release (FIG. 5) [7]: inhibition of glutamate release in a dose dependent manner
